In patent US6352958B1, “Cycloimido-substituted benzofused heterocyclic herbicides” (FMC Corporation, priority 1997, dated 2002):

What was measured:
Format in all cases: in vivo
[1] = test system: soybean (Glycine max var. Winchester); assay: Preemergence herbicidal activity, soybean; conditions: Rate of Application 0.3 Kg/Ha, examined after 12-17 days
[2] = test system: wheat (Triticum aestivum var. Lew); assay: Preemergence herbicidal activity, wheat; conditions: Rate of Application 0.3 Kg/Ha, examined after 12-17 days
[3] = test system: field corn (Zea mays var. Pioneer 3732); assay: Preemergence herbicidal activity, corn; conditions: Rate of Application 0.3 Kg/Ha, examined after 12-17 days
[4] = test system: velvetleaf (Abutilon theophrasti); assay: Preemergence herbicidal activity, velvetleaf; conditions: Rate of Application 0.3 Kg/Ha, examined after 12-17 days
[5] = test system: morningglory (Ipomea lacunosa or Ipomea hederacea); assay: Preemergence herbicidal activity, morningglory; conditions: Rate of Application 0.3 Kg/Ha, examined after 12-17 days
[6] = test system: common cocklebur (Xanthium strumarium L.); assay: Preemergence herbicidal activity, cocklebur; conditions: Rate of Application 0.3 Kg/Ha, examined after 12-17 days
[7] = test system: blackgrass (Aloepecurus myosuroides); assay: Preemergence herbicidal activity, blackgrass; conditions: Rate of Application 0.3 Kg/Ha, examined after 12-17 days
[8] = test system: green foxtail (Setaria viridis); assay: Preemergence herbicidal activity, green foxtail; conditions: Rate of Application 0.3 Kg/Ha, examined after 12-17 days
[9] = test system: Johnsongrass (Sorghum halepense); assay: Preemergence herbicidal activity, johnsongrass; conditions: Rate of Application 0.3 Kg/Ha, examined after 12-17 days
[10] = test system: soybean (Glycine max var. Winchester); assay: Postemergence herbicidal activity, soybean; conditions: rate of application 0.3 Kg/Ha, rated after 12-17 days
[11] = test system: wheat (Triticum aestivum var. Lew); assay: Postemergence herbicidal activity, wheat; conditions: rate of application 0.3 Kg/Ha, rated after 12-17 days
[12] = test system: field corn (Zea mays var. Pioneer 3732); assay: Postemergence herbicidal activity, corn; conditions: rate of application 0.3 Kg/Ha, rated after 12-17 days
[13] = test system: velvetleaf (Abutilon theophrasti); assay: Postemergence herbicidal activity, velvetleaf; conditions: rate of application 0.3 Kg/Ha, rated after 12-17 days
[14] = test system: morningglory (Ipomea lacunosa or Ipomea hederacea); assay: Postemergence herbicidal activity, morningglory; conditions: rate of application 0.3 Kg/Ha, rated after 12-17 days
[15] = test system: blackgrass (Aloepecurus myosuroides); assay: Postemergence herbicidal activity, blackgrass; conditions: rate of application 0.3 Kg/Ha, rated after 12-17 days
Experimental: The benzofused heterocyclic compounds of this invention were tested for pre- and postemergence herbicidal activity using a variety of crops and weeds. The test plants included soybean (Glycine max var. Winchester), field corn (Zea mays var. Pioneer 3732), wheat (Triticum aestivum var. Lew), morningglory (Ipomea lacunosa or Ipomea hederacea), velvetleaf (Abutilon theophrasti), green foxtail (Setaria viridis), Johnsongrass (Sorghum halepense), blackgrass (Aloepecurus myosuroides), common chickweed (Stellaria media), and common cocklebur (Xanthium strumarium L.).
For preemergence testing, two disposable fiber flats (8 cm×15 cm×25 cm) for each rate of application of each candidate herbicide were filled to an approximate depth of 6.5 cm with steam-sterilized sandy loam soil. The soil was leveled and impressed with a template to provide five evenly spaced furrows 13 cm long and 0.5 cm deep in each flat. Seeds of soybean, wheat, corn, green foxtail, and johnsongrass were planted in the furrows of the first flat, and seeds of velvetleaf, morningglory, common chickweed, cocklebur, and blackgrass were planted in the furrows of the second flat. The five-row template was employed to firmly press the seeds into place. A topping soil of equal portions of sand and sandy loam soil was placed uniformly on top of each flat to a depth of approximately 0.5 cm. Flats for postemergence testing were prepared in the same manner except that they were planted 9-14 days prior to the preemergence flats and were placed in a greenhouse and watered, thus allowing the seeds to germinate and the foliage to develop.
In both pre- and postemergence tests, a stock solution of the candidate herbicide was prepared by dissolving 0.27 g of the compound in 20 mL of water/acetone (50/50) containing 0.5% v/v sorbitan monolaurate. For an application rate of 3000 g/ha of herbicide a 10 mL portion of the stock solution was diluted with water/acetone (50/50) to 45 mL.
The preemergence flats were initially subjected to a light water spray. The four flats were placed two by two along a conveyor belt (i.e., the two preemergence followed by the two postemergence flats). The conveyor belt fed under a spray nozzle mounted about ten inches above the post-emergent foliage. The preemergent flats were elevated on the belt so that the soil surface was at the same level below the spray nozzle as the foliage canopy of the postemergent plants. The spray of herbicidal solution was commenced and once stabilized, the flats were passed under the spray at a speed to receive a coverage equivalent of 100 L/ha. At this coverage the application rates are those shown in the above table for the individual herbicidal solutions. The preemergence flats were watered immediately thereafter, placed in the greenhouse and watered regularly at the soil surface. The postemergence flats were immediately placed in the green-house and not watered until 24 hours after treatment with the test solution. Thereafter they were regularly watered at ground level. After 12-17 days the plants were examined and the phytotoxicity data were recorded.
Phytotoxicity data were taken as percent control. Percent control was determined by a method similar to the 0 to 100 rating system disclosed in “Research Methods in Weed Science,” 2nd ed., B. Truelove, Ed.; Southern Weed Science Society; Auburn University, Auburn, Ala., 1977.

[16] = test system: green foxtail (Setaria viridis); assay: Postemergence herbicidal activity, green foxtail; conditions: rate of application 0.3 Kg/Ha, rated after 12-17 days
[17] = test system: Johnsongrass (Sorghum halepense); assay: Postemergence herbicidal activity, johnsongrass; conditions: rate of application 0.3 Kg/Ha, rated after 12-17 days
[18] = test system: common cocklebur (Xanthium strumarium L.); assay: Postemergence herbicidal activity, cocklebur; conditions: rate of application 0.3 Kg/Ha, rated after 12-17 days
[19] = test system: common chickweed (Stellaria media); assay: Preemergence herbicidal activity, chickweed; conditions: Rate of Application 0.3 Kg/Ha, examined after 12-17 days
[20] = test system: common chickweed (Stellaria media); assay: Postemergence herbicidal activity, chickweed; conditions: rate of application 0.3 Kg/Ha, rated after 12-17 days

Row | SMILES | PREEMERGENCE HERBICIDAL ACTIVITY (% CONTROL) SOY [1] [%] | PREEMERGENCE HERBICIDAL ACTIVITY (% CONTROL) WHT [2] [%] | PREEMERGENCE HERBICIDAL ACTIVITY (% CONTROL) CRN [3] [%] | PREEMERGENCE HERBICIDAL ACTIVITY (% CONTROL) ABUTH [4] [%] | PREEMERGENCE HERBICIDAL ACTIVITY (% CONTROL) IPOSS [5] [%] | PREEMERGENCE HERBICIDAL ACTIVITY (% CONTROL) XANPE [6] [%] | PREEMERGENCE HERBICIDAL ACTIVITY (% CONTROL) ALOMY [7] [%] | PREEMERGENCE HERBICIDAL ACTIVITY (% CONTROL) SETVI [8] [%] | PREEMERGENCE HERBICIDAL ACTIVITY (% CONTROL) SORHA [9] [%] | Postemergence herbicidal activity (% control) SOY [10] [%] | Postemergence herbicidal activity (% control) WHT [11] [%] | Postemergence herbicidal activity (% control) CRN [12] [%] | Postemergence herbicidal activity (% control) ABUTH [13] [%] | Postemergence herbicidal activity (% control) IPOSS [14] [%] | Postemergence herbicidal activity (% control) ALOMY [15] [%] | Postemergence herbicidal activity (% control) SETVI [16] [%] | Postemergence herbicidal activity (% control) SORHA [17] [%] | Postemergence herbicidal activity (% control) XANPE [18] [%] | PREEMERGENCE HERBICIDAL ACTIVITY (% CONTROL) STEME [19] [%] | Postemergence herbicidal activity (% control) STEME [20] [%]
1 | CC(=O)OCc1nc2c(-n3c(=O)cc(C(F)(F)F)n(C)c3=O)c(F)cc(Br)c2o1 [Compound 101] | 80 | 70 | 100 | 100 | 100 | 80 | 80 | 100 | 100 | 95 | 50 | 80 | 100 | 100 | 60 | 65 | 65 |  |  | 
2 | Cn1c(C(F)(F)F)cc(=O)n(-c2c(F)cc(Br)c3oc(COc4ccc(Cl)cc4)nc23)c1=O [Compound 102] | 20 | 30 | 10 | 100 | 70 | 50 | 90 | 100 | 60 | 80 | 30 | 75 | 100 | 100 | 60 | 90 | 60 |  |  | 
3 | CC(=O)OC(c1ccccc1)c1nc2c(-n3c(=O)cc(C(F)(F)F)n(C)c3=O)c(F)cc(Br)c2o1 (stereo not drawn) [Compound 103] | 50 | 50 | 80 | 100 | 100 | 70 | 90 | 100 | 70 | 90 | 50 | 80 | 100 | 80 | 70 | 100 | 60 | 80 |  | 
4 | C#CCOc1nc2c(-n3c(=O)cc(C(F)(F)F)n(C)c3=O)c(F)cc(Br)c2o1 [Compound 106] | 30 | 40 | 70 | 100 | 100 | 60 | 70 | 90 | 55 | 80 | 30 | 75 | 100 | 100 | 60 | 100 | 70 |  | 95 | 
5 | Cn1c(C(F)(F)F)cc(=O)n(-c2c(F)cc(Cl)c3[nH]c(C(F)F)nc23)c1=O [Compound 364] | 100 | 60 | 80 | 100 | 100 | 100 | 80 | 100 | 80 | 95 | 40 | 80 | 100 | 100 |  | 100 | 100 | 100 | 100 | 100
6 | CC(=O)OC(C)(C)c1nc2c(-n3c(=O)cc(C(F)(F)F)n(C)c3=O)c(F)cc(Cl)c2[nH]1 [Compound 371] | 100 | 95 | 100 | 100 | 100 | 100 | 100 | 100 | 100 | 95 | 100 | 100 | 100 | 100 |  | 100 | 100 | 100 | 100 | 100
7 | CC(c1ccccc1)c1nc2c(Cl)cc(F)c(-n3c(=O)cc(C(F)(F)F)n(C)c3=O)c2[nH]1 (stereo not drawn) [Compound 377] | 100 | 70 | 90 | 100 | 100 | 100 | 100 | 100 | 100 | 95 | 80 | 100 | 100 | 100 | 100 | 100 | 100 | 100 |  | 
